Measurements published in article PMC6308944, “Anti-Candida albicans Activity of Thiazolylhydrazone Derivatives in Invertebrate and Murine Models” (Journal of Fungi, 2018).
≈ marks a conversion by molar mass, not a printed value.

Columns and labels:
C. neoformans (H99) = assay: MIC, broth microdilution (CLSI M27-A3), reference isolate; conditions: Cryptococcus neoformans
C. dublinensis (MYA-646) = assay: as above; conditions: Candida dubliniensis
[1] = system: C. tropicalis (ATCC13803); assay: as above; conditions: Candida tropicalis
[2] = system: Cryptococcus neoformans clinical isolates; assay: MIC, broth microdilution, clinical isolates
[3] = system: C. parapsilosis (ATCC22019); assay: MIC, broth microdilution (CLSI M27-A3), reference isolate; conditions: Lodderomyces parapsilosis
[4] = system: Candida albicans clinical isolates; assay: MIC, broth microdilution, clinical isolates
C. albicans (DAY-185) = assay: MIC, broth microdilution (CLSI M27-A3), reference isolate; conditions: Candida albicans, 48 h
C. albicans (CAN14) = assay: as above; conditions: Candida albicans
[5] = system: Candida parapsilosis isolates; assay: MIC, broth microdilution, clinical isolates
C. glabrata (ATCC90030) = assay: MIC, broth microdilution (CLSI M27-A3), reference isolate; conditions: Nakaseomyces glabratus
[6] = system: Candida glabrata clinical isolates; assay: MIC, broth microdilution, clinical isolates
C. krusei (ATCC6258) = assay: MIC, broth microdilution (CLSI M27-A3), reference isolate; conditions: Pichia kudriavzevii
C. albicans CAN14 [7] = assay: Murine model of systemic candidiasis; type: in vivo, C57BL/6 mice; conditions: 10 mg/kg intraperitoneally every 12 h for 5 days
Description: Female mice were used in the oral and systemic candidiasis model.
The murine model of systemic candidiasis was established according to the protocol previously described by [16], with modifications. […] Treatments to mice, performed intraperitoneally, were started 3 h after infection and persisted every 12 h for 5 days. […] All mice were sacrificed by cervical dislocation after 5 days and the kidneys were removed, observed macroscopically for lesions and colonies, weighed, measured and homogenized in PBS. The homogenates were serially diluted and plated on Sabouraud medium plates. Plates were incubated at 30 °C for 48 h and the fungal load was expressed as the ratio of CFU/g of kidney.
A p value ≤ 0.05 was considered significant. Statistical analysis of results of murine tests used Newman–Keuls Multiple and the Student’s t-test using GraphPad Prism, a p-value ≤ 0.05 was considered significant.

C. albicans CAN14 [8] = assay: Murine model of oral candidiasis; type: in vivo, C57BL/6 mice; conditions: 600 IU, into the mouth every 12 h for 4 days, immunosuppressed mice

In the case of `OC(Cn1cncn1)(Cn1cncn1)c1ccc(F)cc1F` [Fluconazole], the MIC (C. neoformans (H99)) is reported as 2 µg/mL (≈ 6.53 µM), the MIC (C. dublinensis (MYA-646)) is reported as 1 µg/mL (≈ 3.27 µM) and the MIC [1] is reported as greater than 64 µg/mL. The MIC50 [2] was 8 µg/mL (≈ 26.1 µM), the MIC90 [2] was 16 µg/mL (≈ 52.2 µM) and the MIC ([2]; C. neoformans clinical isolate 27JF) was 8 µg/mL (≈ 26.1 µM). It also gave an MIC ([2]; C. neoformans clinical isolate 28JF) of 8 µg/mL (≈ 26.1 µM), an MIC ([2]; C. neoformans clinical isolate 93) of 4 µg/mL (≈ 13.1 µM) and an MIC ([2]; C. neoformans clinical isolate 94) of 8 µg/mL (≈ 26.1 µM). It also gave an MIC ([2]; C. neoformans clinical isolate 646B) of 1 µg/mL (≈ 3.27 µM), an MIC ([2]; C. neoformans clinical isolate 975) of 2 µg/mL (≈ 6.53 µM) and an MIC ([2]; C. neoformans clinical isolate 9220) of 2 µg/mL (≈ 6.53 µM). The MIC ([2]; C. neoformans clinical isolate 9273) was 2 µg/mL (≈ 6.53 µM), the MIC ([2]; C. neoformans clinical isolate 10131) was 8 µg/mL (≈ 26.1 µM) and the MIC ([2]; C. neoformans clinical isolate 10211) was 4 µg/mL (≈ 13.1 µM). For the same compound, the MIC ([2]; C. neoformans clinical isolate 10264) was 4 µg/mL (≈ 13.1 µM), the MIC ([2]; C. neoformans clinical isolate 10335) was 8 µg/mL (≈ 26.1 µM) and the MIC ([2]; C. neoformans clinical isolate 10379) was 8 µg/mL (≈ 26.1 µM). The MIC ([2]; C. neoformans clinical isolate 41292) was 8 µg/mL (≈ 26.1 µM), the MIC ([2]; C. neoformans clinical isolate 41295) was 32 µg/mL (≈ 104 µM) and the MIC ([2]; C. neoformans clinical isolate 41296) was 16 µg/mL (≈ 52.2 µM). For the same compound, the MIC ([2]; C. neoformans clinical isolate 41297) was 8 µg/mL (≈ 26.1 µM), the MIC ([2]; C. neoformans clinical isolate 41298) was 8 µg/mL (≈ 26.1 µM) and the MIC ([2]; C. neoformans clinical isolate 41299) was 4 µg/mL (≈ 13.1 µM). It also gave an MIC ([2]; C. neoformans clinical isolate 90896) of 32 µg/mL (≈ 104 µM), an MIC ([2]; C. neoformans clinical isolate 92868) of 8 µg/mL (≈ 26.1 µM) and an MIC ([2]; C. neoformans clinical isolate BF113) of 16 µg/mL (≈ 52.2 µM). For the same compound, the MIC ([2]; C. neoformans clinical isolate BF114) was 64 µg/mL (≈ 209 µM), the MIC ([2]; C. neoformans clinical isolate C31) was 4 µg/mL (≈ 13.1 µM) and the MIC ([2]; C. neoformans clinical isolate F10) was 4 µg/mL (≈ 13.1 µM). The MIC ([2]; C. neoformans clinical isolate RN01) was 4 µg/mL (≈ 13.1 µM), the MIC ([2]; C. neoformans clinical isolate WP) was 8 µg/mL (≈ 26.1 µM) and the MIC [3] was 8 µg/mL (≈ 26.1 µM). The MIC50 ([4]; Candida albicans) was 1 µg/mL (≈ 3.27 µM), the MIC90 ([4]; Candida albicans) was 2 µg/mL (≈ 6.53 µM) and the MIC ([4]; Candida albicans, C. albicans clinical isolate 1) was 1 µg/mL (≈ 3.27 µM). It also gave an MIC ([4]; Candida albicans, C. albicans clinical isolate 02A) of 4 µg/mL (≈ 13.1 µM), an MIC ([4]; Candida albicans, C. albicans clinical isolate 02B) of 2 µg/mL (≈ 6.53 µM) and an MIC ([4]; Candida albicans, C. albicans clinical isolate 6) of 1 µg/mL (≈ 3.27 µM). It also gave an MIC ([4]; Candida albicans, C. albicans clinical isolate 7) of 1 µg/mL (≈ 3.27 µM), an MIC ([4]; Candida albicans, C. albicans clinical isolate 9) of 0.5 µg/mL (≈ 1.63 µM) and an MIC ([4]; Candida albicans, C. albicans clinical isolate 10) of 0.5 µg/mL (≈ 1.63 µM). For the same compound, the MIC ([4]; Candida albicans, C. albicans clinical isolate 11) was 1 µg/mL (≈ 3.27 µM), the MIC ([4]; Candida albicans, C. albicans clinical isolate 13) was 1 µg/mL (≈ 3.27 µM) and the “MIC90” value ([4]; nine C. albicans clinical isolates) was 2.0 µg/mL (≈ 6.53 µM). For the same compound, the MIC (C. albicans (DAY-185)) was 0.5 µg/mL (≈ 1.63 µM), the MIC (C. albicans (CAN14)) was 0.125 µg/mL (≈ 0.408 µM) and the “MIC90” value ([5]; C. parapsilosis isolates) was 16 µg/mL (≈ 52.2 µM). For the same compound, the MIC50 ([5]; Lodderomyces parapsilosis) was 0.25 µg/mL (≈ 0.816 µM), the MIC90 ([5]; Lodderomyces parapsilosis) was 16 µg/mL (≈ 52.2 µM) and the MIC ([5]; Lodderomyces parapsilosis, C. parapsilosis isolate 6901) was 0.25 µg/mL (≈ 0.816 µM). The MIC ([5]; Lodderomyces parapsilosis, C. parapsilosis isolate 6917) was 0.25 µg/mL (≈ 0.816 µM), the MIC ([5]; Lodderomyces parapsilosis, C. parapsilosis isolate 6933) was 0.25 µg/mL (≈ 0.816 µM) and the MIC ([5]; Lodderomyces parapsilosis, C. parapsilosis isolate 7449) was 16 µg/mL (≈ 52.2 µM). For the same compound, the MIC ([5]; Lodderomyces parapsilosis, C. parapsilosis isolate 7585) was 0.25 µg/mL (≈ 0.816 µM), the MIC ([5]; Lodderomyces parapsilosis, C. parapsilosis isolate 7652) was 4 µg/mL (≈ 13.1 µM) and the MIC ([5]; Lodderomyces parapsilosis, C. parapsilosis isolate 7839) was 0.5 µg/mL (≈ 1.63 µM). It also gave an MIC ([5]; Lodderomyces parapsilosis, C. parapsilosis isolate 7970A) of 1 µg/mL (≈ 3.27 µM), an MIC ([5]; Lodderomyces parapsilosis, C. parapsilosis isolate 8044) of 0.25 µg/mL (≈ 0.816 µM) and an MIC ([5]; Lodderomyces parapsilosis, C. parapsilosis isolate 8662) of 16 µg/mL (≈ 52.2 µM). It also gave an MIC (C. glabrata (ATCC90030)) of 4 µg/mL (≈ 13.1 µM), an MIC50 ([6]; Nakaseomyces glabratus) of 2 µg/mL (≈ 6.53 µM) and an MIC90 ([6]; Nakaseomyces glabratus) of 2 µg/mL (≈ 6.53 µM). The MIC ([6]; Nakaseomyces glabratus, C. glabrata clinical isolate 6922) was 2 µg/mL (≈ 6.53 µM), the MIC ([6]; Nakaseomyces glabratus, C. glabrata clinical isolate 6927) was 2 µg/mL (≈ 6.53 µM) and the MIC ([6]; Nakaseomyces glabratus, C. glabrata clinical isolate 6931) was 0.5 µg/mL (≈ 1.63 µM). It also gave an MIC ([6]; Nakaseomyces glabratus, C. glabrata clinical isolate 6932) of 0.5 µg/mL (≈ 1.63 µM), an MIC ([6]; Nakaseomyces glabratus, C. glabrata clinical isolate 6943) of 8 µg/mL (≈ 26.1 µM) and an MIC ([6]; Nakaseomyces glabratus, C. glabrata clinical isolate 7110) of 1 µg/mL (≈ 3.27 µM). The MIC ([6]; Nakaseomyces glabratus, C. glabrata clinical isolate 7221) was 0.5 µg/mL (≈ 1.63 µM), the MIC ([6]; Nakaseomyces glabratus, C. glabrata clinical isolate 7255) was 2 µg/mL (≈ 6.53 µM) and the MIC ([6]; Nakaseomyces glabratus, C. glabrata clinical isolate 7815) was 2 µg/mL (≈ 6.53 µM). For the same compound, the MIC ([6]; Nakaseomyces glabratus, C. glabrata clinical isolate 7871) was 2 µg/mL (≈ 6.53 µM), the “susceptibility of isolates according to CLSI M27-S4” value ([6]; all C. glabrata clinical isolates) was “sensitive” and the MIC (C. krusei (ATCC6258)) was 64 µg/mL (≈ 209 µM). The “fungal load in the kidneys (CFU/g) versus untreated control” value (C. albicans CAN14 [7]) was “significant reduction”.

With `C[C@@H]1[C@H](O)[C@@H](C)/C=C/C=C/CC/C=C/C=C/C=C/C=C/C(O[C@H]2O[C@H](C)[C@@H](O)[C@H](N)[C@@H]2O)CC2O[C@](O)(CC(O)C(O)CCC(O)CC(O)CC(O)CC(=O)O[C@H]1C)CC(O)C2C(=O)O` (some centres unmarked) [nystatin] the “fungal load on the tongue (CFU) versus untreated control” value (C. albicans CAN14 [8]) was “lower”.
